{
  "source": "PubChem BioAssay (NCI)",
  "test_in_all_cases": "inhibition of tumour cell growth, NCI panel, 48 h",
  "key": {"[1]": {"system": "SN12C renal"}, "[2]": {"system": "786-0 renal"}, "[3]": {"system": "KM20L2 colon"}, "[4]": {"system": "M14 melanoma"}, "[5]": {"system": "SK-MEL-28 melanoma"}, "[6]": {"system": "A498 renal"}, "[7]": {"system": "SF-539 CNS"}, "[8]": {"system": "HOP-62 NSCLC"}, "[9]": {"system": "OVCAR-8 ovarian"}, "[10]": {"system": "XF 498 CNS"}, "[11]": {"system": "RXF 393 renal"}, "[12]": {"system": "ACHN renal"}, "[13]": {"system": "OVCAR-4 ovarian"}, "[14]": {"system": "MALME-3M melanoma"}, "[15]": {"system": "TK-10 renal"}, "[16]": {"system": "LXFL 529 NSCLC"}, "[17]": {"system": "SW-620 colon"}, "[18]": {"system": "DLD-1 colon"}, "[19]": {"system": "OVCAR-5 ovarian"}, "[20]": {"system": "CAKI-1 renal"}, "[21]": {"system": "A549 NSCLC"}, "[22]": {"system": "SF-295 CNS"}, "[23]": {"system": "RPMI-8226 leukemia"}, "[24]": {"system": "EKVX NSCLC"}, "[25]": {"system": "SF-268 CNS"}, "[26]": {"system": "OVCAR-3 ovarian"}, "[27]": {"system": "HL-60(TB) leukemia"}, "[28]": {"system": "HOP-18 NSCLC"}, "[29]": {"system": "HCC-2998 colon"}, "[30]": {"system": "HT29 colon"}, "[31]": {"system": "IGROV1 ovarian"}, "[32]": {"system": "HOP-92 NSCLC"}, "[33]": {"system": "COLO 205 colon"}, "[34]": {"system": "LOX IMVI melanoma"}, "[35]": {"system": "K-562 leukemia"}, "[36]": {"system": "SK-MEL-5 melanoma"}, "[37]": {"system": "HCT-116 colon"}, "[38]": {"system": "UACC-62 melanoma"}, "[39]": {"system": "KM12 colon"}, "[40]": {"system": "M19-MEL melanoma"}, "[41]": {"system": "SNB-75 CNS"}, "[42]": {"system": "SK-MEL-2 melanoma"}, "[43]": {"system": "HCT-15 colon"}, "[44]": {"system": "UACC-257 melanoma"}, "[45]": {"system": "NCI-H23 lung"}, "[46]": {"system": "U251 CNS"}, "[47]": {"system": "NCI-H226 lung"}, "[48]": {"system": "SNB-19 CNS"}, "[49]": {"system": "UO-31 renal"}, "[50]": {"system": "SK-OV-3 ovarian"}, "[51]": {"system": "NCI-H460 lung"}, "[52]": {"system": "DMS 273 small cell lung"}, "[53]": {"system": "MOLT-4 leukemia"}},
  "note": "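Dose response: 5 concentrations. Exposure: 48 h. Format: 96-well plates. Endpoint: linear interpolation; highest concentration if not reached. TGI marks complete inhibition of growth.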",
  "data": [
    {"smiles": "COC1O[C@@H]2COC(C)(C)O[C@@H]2C(=O)N1Nc1ccc([N+](=O)[O-])cc1", "note": "(stereo partly drawn)", "values": [
      {"measurement": "TGI", "setting": "[1]", "value": "> 100", "unit": "µM"},
      {"measurement": "TGI", "setting": "[2]", "value": "> 100", "unit": "µM"},
      {"measurement": "TGI", "setting": "[3]", "value": "> 100", "unit": "µM"},
      {"measurement": "TGI", "setting": "[4]", "value": "> 100", "unit": "µM"},
      {"measurement": "TGI", "setting": "[5]", "value": "> 100", "unit": "µM"},
      {"measurement": "TGI", "setting": "[6]", "value": "> 100", "unit": "µM"},
      {"measurement": "TGI", "setting": "[7]", "value": "> 100", "unit": "µM"},
      {"measurement": "TGI", "setting": "[8]", "value": "> 100", "unit": "µM"},
      {"measurement": "TGI", "setting": "[9]", "value": "> 100", "unit": "µM"},
      {"measurement": "TGI", "setting": "[10]", "value": "> 100", "unit": "µM"},
      {"measurement": "TGI", "setting": "[11]", "value": "> 100", "unit": "µM"},
      {"measurement": "TGI", "setting": "[12]", "value": "> 100", "unit": "µM"},
      {"measurement": "TGI", "setting": "[13]", "value": "> 100", "unit": "µM"},
      {"measurement": "TGI", "setting": "[14]", "value": "> 100", "unit": "µM"},
      {"measurement": "TGI", "setting": "[15]", "value": "> 100", "unit": "µM"},
      {"measurement": "TGI", "setting": "[16]", "value": "> 100", "unit": "µM"},
      {"measurement": "TGI", "setting": "[17]", "value": 72.9, "unit": "µM"},
      {"measurement": "TGI", "setting": "[18]", "value": "> 100", "unit": "µM"},
      {"measurement": "TGI", "setting": "[19]", "value": "> 100", "unit": "µM"},
      {"measurement": "TGI", "setting": "[20]", "value": "> 100", "unit": "µM"},
      {"measurement": "TGI", "setting": "[21]", "value": "> 100", "unit": "µM"},
      {"measurement": "TGI", "setting": "[22]", "value": "> 100", "unit": "µM"},
      {"measurement": "TGI", "setting": "[23]", "value": 45.4, "unit": "µM"},
      {"measurement": "TGI", "setting": "[24]", "value": "> 100", "unit": "µM"},
      {"measurement": "TGI", "setting": "[25]", "value": "> 100", "unit": "µM"},
      {"measurement": "TGI", "setting": "[26]", "value": "> 100", "unit": "µM"},
      {"measurement": "TGI", "setting": "[27]", "value": "> 100", "unit": "µM"},
      {"measurement": "TGI", "setting": "[28]", "value": "> 100", "unit": "µM"},
      {"measurement": "TGI", "setting": "[29]", "value": "> 100", "unit": "µM"},
      {"measurement": "TGI", "setting": "[30]", "value": "> 100", "unit": "µM"},
      {"measurement": "TGI", "setting": "[31]", "value": "> 100", "unit": "µM"},
      {"measurement": "TGI", "setting": "[32]", "value": "> 100", "unit": "µM"},
      {"measurement": "TGI", "setting": "[33]", "value": "> 100", "unit": "µM"},
      {"measurement": "TGI", "setting": "[34]", "value": 95.5, "unit": "µM"},
      {"measurement": "TGI", "setting": "[35]", "value": "> 100", "unit": "µM"},
      {"measurement": "TGI", "setting": "[36]", "value": "> 100", "unit": "µM"},
      {"measurement": "TGI", "setting": "[37]", "value": "> 100", "unit": "µM"},
      {"measurement": "TGI", "setting": "[38]", "value": "> 100", "unit": "µM"},
      {"measurement": "TGI", "setting": "[39]", "value": "> 100", "unit": "µM"},
      {"measurement": "TGI", "setting": "[40]", "value": "> 100", "unit": "µM"},
      {"measurement": "TGI", "setting": "[41]", "value": "> 100", "unit": "µM"},
      {"measurement": "TGI", "setting": "[42]", "value": "> 100", "unit": "µM"},
      {"measurement": "TGI", "setting": "[43]", "value": "> 100", "unit": "µM"},
      {"measurement": "TGI", "setting": "[44]", "value": "> 100", "unit": "µM"},
      {"measurement": "TGI", "setting": "[45]", "value": "> 100", "unit": "µM"},
      {"measurement": "TGI", "setting": "[46]", "value": "> 100", "unit": "µM"},
      {"measurement": "TGI", "setting": "[47]", "value": "> 100", "unit": "µM"},
      {"measurement": "TGI", "setting": "[48]", "value": "> 100", "unit": "µM"},
      {"measurement": "TGI", "setting": "[49]", "value": "> 100", "unit": "µM"},
      {"measurement": "TGI", "setting": "[50]", "value": "> 100", "unit": "µM"},
      {"measurement": "TGI", "setting": "[51]", "value": "> 100", "unit": "µM"},
      {"measurement": "TGI", "setting": "[52]", "value": "> 100", "unit": "µM"},
      {"measurement": "TGI", "setting": "[53]", "value": "> 100", "unit": "µM"}
    ]}
  ]
}
